Where “and” joins values, the source holds several entries; their conditions need not be identical. Equal entries are not always repeated. Where two headings read alike, the source gives them in different places.
How the values were obtained:
[1] = biological target: T1, TYR from Agaricus bisporus (AbTYR) (Agaricus bisporus, UniProt C7FF04); set-up: purchased Sigma Chemical Co. (St. Louis, MO, USA); conditions: previous paper; read-out: IC50, inhibition of AbTYR; cited from earlier work
[2] = tested on: tyrosinase activity in α‐MSH‐stimulated B16F10 cells; assay: Tyrosinase zymography (L-DOPA staining) in α-MSH-stimulated B16F10 cells; assay type: cell-based, Murine; conditions: Mus musculus, B16-F10, α-MSH (100 nM)-stimulated B16F10 cells, 48 h, read-out: inhibition of tyrosinase activity / melanogenesis
Protocol: ImageJ software was used to determine the intensity of bands.
A day after seeding the B16F10 cells (6×10^4 cells/mL) the culture medium was substituted by fresh one supplemented with 100 nM α‐MSH.
After incubation for 48 h, cells were washed and lysed using phosphate buffer (25 mM, pH 6.8) containing Triton X‐100 (1 %) and phenylmethyl‐sulfonyl fluoride (0.1 mM). Cellular lysates were centrifugated at 13000 rpm for 20 min at 4 °C. The protein content was determined by Bradford method and BSA was used as standard.
SDS‐polyacrylamide gel electrophoresis was used to resolve the protein extracts previously mixed with 10 mM Tris‐HCl buffer, pH 7.0, containing 1 % SDS, without mercaptoethanol.
After running, gel was rinsed in phosphate buffer (0.1 M, pH 7.0) and equilibrated for 30 min twice. […] Tyrosinase activity was visualized in the gel as dark melanin‐containing bands

[3] = positive control; read-out: EC50 [μM], antioxidant activity (ABTS); cited from earlier work
[4] = biological target: T1, TYR from Agaricus bisporus (AbTYR); assay: Inhibition of diphenolase activity of AbTYR (L-DOPA as substrate); conditions: for IC50: IC50 [μM]±SD, inhibition of diphenolase activity of AbTYR, L-DOPA substrate, three replicates;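 on all read-outs here: absorbance measured spectrophotometrically with L-DOPA as substrate, inhibition expressed as percent relative to control sample, IC50 interpolated from dose-response curves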
Protocol: (§1) absorbance was measured after 60 or 1 min of incubation time in the reaction mixture containing
(§2) L-tyrosine or L-DOPA, respectively. The inhibitory activity was expressed as inhibition percentage
(§3) calculated by interpolation of the dose-response curves. Kojic acid [5-hydroxy-2-(hydroxymethyl)-
(§4) 4H-pyran-4-one], a fungal secondary metabolite used as skin whitening agent, was employed as a
(§5) positive standard (10–50 μM). A spectrophotometer (Agilent Cary 60 UV-Vis Spectrophotometer)
(§6) The inhibition kinetics on the tyrosinase were studied using Lineweaver-Burk double reciprocal
(§7) plots. The reaction mixture consisted of four different concentrations of the substrate L-DOPA
(§8) (0.6–5 mM), and mushroom tyrosinase in phosphate buffer (0.05 M, pH 6.8). Three different
(§9) concentrations were used for the analysis. Preincubation and measurement time were the same
(§10) as discussed in mushroom tyrosinase inhibition assay. The Michaelis-Menten constant (Km) and
(§11) maximal velocity (Vmax) of tyrosinase were determined by Lineweaver-Burk plots.

[5] = biological target: T1, TYR from Agaricus bisporus (AbTYR); assay: Kinetic analysis of AbTYR inhibition (Lineweaver-Burk plots, L-DOPA); conditions: L-DOPA 0.6–5 mM, three inhibitor concentrations, phosphate buffer pH 6.8
Protocol: Kinetics studies were performed in presence of three different concentrations of selected inhibitors, L‐DOPA (0.6–5 mM) and AbTYR in phosphate buffer (0.05 M, pH 6.8).
as §1, §2, §3, §4, §5, §6, §7, §8, §9, §10, §11

B16F10 cells = assay: Cell viability assay (MTT); assay type: cell-based, Murine; conditions: 48 h; for cytotoxic effect (MTT): until a concentration of 10 μM
Protocol: Murine melanoma B16F10 cells (CRL‐6475) were cultured as previous reported.[17]
3‐(4,5‐Dimethylthiazol‐2‐yl)‐2,5‐diphenyltetrazolium bromide (MTT) was used to measure the cells viability. Cells were seeded in 96‐well plates for 24 hours with a density of 5x10^3 for well. Cells were then treated for 48 h with compounds (ranging from 4 μM to 100 μM). After incubation at 37 °C and 5 % of CO2, 100 μL of MTT reagent were added to the cells and incubated 3 h at 37 °C. After adding DMSO the absorbance was determined at 560 nm. The amount of living cells in treated samples relative to untreated controls (100 %) provided the cell viability. The mean value and standard deviation (SD) were calculated from triplicate experiments.
different concentrations of compounds (4-100 μM) and their viability was evaluated by MTT assay. Data
represent mean ± SD of triplicate experiments.

[6] = ABTS radical scavenging antioxidant assay; conditions: mean ± SD of three independent experiments
Protocol: ABTS [2,20‐azinobis‐(3‐ethylbenzothiazoline‐6‐sulfonic acid)] assay was used to determine the total free radical‐scavenging capacity of compounds. 6‐hydroxy‐2,5,7,8‐tetramethylchromane‐2‐carboxylic acid (Trolox) was used as the reference antioxidant.[15]
The ABTS⋅^+ method is based on the capacity of an antioxidant to scavenge the free ABTS⋅^+. To produce this radical an aqueous mixture of 7 mM ABTS with 2.45 mM potassium persulfate was required.
The ABTS solution was kept in the dark, at room temperature, for 24 h before use. The ABTS⋅^+ mixture was diluted, and each compound (10 μL) was added to solution. After 1 min of incubation the absorbance was recorded at 734 nm. Afterwards the decrease in A734 was calculated and referred to the Trolox standard curve. Antioxidant activity was expressed as concentration of the compound to give a 50 % reduction in the original absorbance (EC50).

[7] = biological target: T1, TYR from Agaricus bisporus (AbTYR); assay: Inhibition of monophenolase activity of AbTYR (L-Tyr as substrate); assay type: biochemical; set-up: purchased Sigma Chemical Co. (St. Louis, MO, USA); conditions: 40 μM (Figure S69)
Protocol: Mushroom tyrosinase inhibition assay
6.8). […] Subsequently, 0.05 mL of
L-tyrosine or L-DOPA, respectively.
respect to control sample.
positive standard (10–50 μM).
was used for absorbance measurements.
Kinetic analysis of the tyrosinase inhibition

T1 sequence (C7FF04 1-392 limits assumed): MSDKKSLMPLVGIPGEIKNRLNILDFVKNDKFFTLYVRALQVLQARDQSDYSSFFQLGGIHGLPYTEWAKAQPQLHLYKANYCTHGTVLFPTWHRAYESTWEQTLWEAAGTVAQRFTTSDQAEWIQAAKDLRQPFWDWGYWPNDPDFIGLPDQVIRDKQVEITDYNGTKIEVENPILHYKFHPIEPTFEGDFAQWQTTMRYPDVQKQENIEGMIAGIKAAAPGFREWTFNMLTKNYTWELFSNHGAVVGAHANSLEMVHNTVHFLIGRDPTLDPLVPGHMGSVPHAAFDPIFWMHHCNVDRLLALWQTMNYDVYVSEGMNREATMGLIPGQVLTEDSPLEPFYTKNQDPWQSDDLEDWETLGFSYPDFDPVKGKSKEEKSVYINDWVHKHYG

SMILES | IC50 [4] | melting point [°C] | further results
O=C(CN1CCC(Cc2ccccc2)CC1)N1CCN(c2ccc(O)cc2)CC1 [A, 2‐(4‐benzyl‐1‐piperidinyl)‐1‐[4‐(4‐hydroxyphenyl)piperazin‐1‐yl]ethenone] |  |  | IC50 [1]: 3.8 µM
O=c1cc(CO)occ1O [KA, kojic acid, reference compound] |  |  | inhibition at 25 µM [2]: 17%
Cc1c(C)c2c(c(C)c1O)CCC(C)(C(=O)O)O2 (centres unmarked) [Trolox, 6‐hydroxy‐2,5,7,8‐tetramethylchromane‐2‐carboxylic acid] |  |  | EC50 [3]: 13 ± 1.1 µM
Oc1ccc(N2CCNCC2)cc1 [compound 1, 4‐(1‐piperazinyl)phenol] | 28.9 ± 4.9 µM |  | mechanism of inhibition of AbTYR [5]: competitive inhibitor
O=C(c1ccccc1Cl)N1CCN(c2ccc(O)cc2)CC1 [compound 7, (4‐(4‐Hydroxyphenyl)piperazin‐1‐yl)(2‐chlorophenyl)methanone] | < 5 µM and 2.6 µM | 169 to 170 | cytotoxic effect (MTT) (B16F10 cells): no cytotoxic effect; EC50 [6]: 13.2 ± 0.5 µM; inhibitory effect on monophenolase activity of AbTYR [7]: active inhibitors
O=C(c1ccc(Cl)cc1Cl)N1CCN(c2ccc(O)cc2)CC1 [compound 10, (4‐(4‐Hydroxyphenyl)piperazin‐1‐yl)(2,4‐dichlorophenyl)methanone] | 1.5 ± 0.1 µM | 177 to 178 | cell viability (MTT) (B16F10 cells; until 25 μM): good cell viability; cytotoxic effect (MTT) (B16F10 cells): no cytotoxic effect; mechanism of inhibition of AbTYR [5]: competitive inhibitors; inhibition at 1 µM ([2]; 1 μM): 44%; inhibition at 10 µM ([2]; 10 μM): 73%; inhibition at 25 µM [2]: 88%; EC50 [6]: 9 ± 0.3 µM; inhibitory effect on monophenolase activity of AbTYR [7]: active inhibitors
O=C(c1ccccc1Br)N1CCN(c2ccc(O)cc2)CC1 [compound 11, (4‐(4‐Hydroxyphenyl)piperazin‐1‐yl)(2‐bromophenyl)methanone] | < 5 µM and 4.5 µM | 180 to 181 | cytotoxic effect (MTT) (B16F10 cells): no cytotoxic effect; EC50 [6]: 13.2 ± 1.1 µM; inhibitory effect on monophenolase activity of AbTYR [7]: active inhibitors
O=C(c1ccccc1C(F)(F)F)N1CCN(c2ccc(O)cc2)CC1 [compound 17, (4‐(4‐Hydroxyphenyl)piperazin‐1‐yl)(2‐(trifluoromethyl)phenyl)methanone] | 4.6 ± 0.3 µM | 152 to 153 | cytotoxic effect (MTT) (B16F10 cells): no cytotoxic effect; EC50 [6]: 9 ± 0.9 µM; inhibitory effect on monophenolase activity of AbTYR [7]: active inhibitors
COc1ccccc1C(=O)N1CCN(c2ccc(O)cc2)CC1 [compound 21, [4‐(4‐Hydroxyphenyl)piperazin‐1‐yl](2‐methoxyphenyl)methanone] | 3.5 ± 0.2 µM |  | fold more potent than reference compound KA [4]: about 3.5 fold; cytotoxic effect (MTT) (B16F10 cells): no cytotoxic effect; mechanism of inhibition of AbTYR [5]: competitive inhibitors; EC50 [6]: 9.2 ± 0.2 µM; inhibitory effect on monophenolase activity of AbTYR [7]: active inhibitors
COc1ccc(C(=O)N2CCN(c3ccc(O)cc3)CC2)cc1 [compound 23, [4‐(4‐Hydroxyphenyl)piperazin‐1‐yl](4‐methoxyphenyl)methanone] | 14.9 ± 0.7 µM | 177 to 178 | 
O=C(c1ccc(F)cc1F)N1CCN(c2ccc(O)cc2)CC1 [compound 25, (4‐(4‐Hydroxyphenyl)piperazin‐1‐yl)(2,4‐difluorophenyl)methanone] | 17.5 ± 1.3 µM | 180 to 181 | 
O=C(c1ccc(Br)cc1Br)N1CCN(c2ccc(O)cc2)CC1 [compound 26, (4‐(4‐Hydroxyphenyl)piperazin‐1‐yl)(2,4‐dibromophenyl)methanone] | 9.5 ± 0.3 µM | 176 to 177 | 
Cc1ccc(C(=O)N2CCN(c3ccc(O)cc3)CC2)c(C)c1 [compound 27, [4‐(4‐Hydroxyphenyl)piperazin‐1‐yl](2,4‐dimethylphenyl)methanone] | 33.7 ± 0.7 µM | 164 to 165 | 
O=C(c1ccccc1[N+](=O)[O-])N1CCN(c2ccc(O)cc2)CC1 [compound 28, (4‐(4‐hydroxyphenyl)piperazin‐1‐yl)(2‐nitrophenyl)methanone] | 7.4 ± 0.7 µM | 184 to 185 | 
O=C(c1ccc([N+](=O)[O-])cc1)N1CCN(c2ccc(O)cc2)CC1 [compound 30, (4‐(4‐Hydroxyphenyl)piperazin‐1‐yl)(4‐nitrophenyl)methanone] | 23.2 ± 1.5 µM | 157 to 158 | 
O=C(c1ccc([N+](=O)[O-])cc1[N+](=O)[O-])N1CCN(c2ccc(O)cc2)CC1 [compound 31, (4‐(4‐Hydroxyphenyl)piperazin‐1‐yl)(2,4‐dinitrophenyl)methanone] | 7.6 ± 0.05 µM | 225 to 226 | 
Nc1cccc(C(=O)N2CCN(c3ccc(O)cc3)CC2)c1 [compound 33, (4‐(4‐Hydroxyphenyl)piperazin‐1‐yl)(3‐aminophenyl)methanone] | 35.7 ± 1.05 µM | 95 to 96 | 
Nc1ccc(C(=O)N2CCN(c3ccc(O)cc3)CC2)cc1 [compound 34, (4‐(4‐Hydroxyphenyl)piperazin‐1‐yl)(4‐aminophenyl)methanone] | 43.9 ± 3.4 µM | 94 to 95 | 
Nc1ccc(C(=O)N2CCN(c3ccc(O)cc3)CC2)c(N)c1 [compound 35, (4‐(4‐Hydroxyphenyl)piperazin‐1‐yl)(2,4‐diaminophenyl)methanone] | 82.4 ± 1.1 µM | 80 to 81 | 
